According to US20080200422A1, “Methods for reduction of adipose tissue mass” (priority 2007, published 2008):
Entries after “also recorded” stand apart in the source; their conditions may differ.

Assays:
[1] = system: leucine-deprived GCN2−/− mice; assay: C75 treatment of leucine-deprived GCN2−/− mice (liver steatosis, liver gene expression); type: in vivo; conditions: 20 mg/kg IP, three doses over seven days
Procedure: FIG. 5. Leucine deprivation induced-liver steatosis in GCN2^−/− mice is prevented by inhibition of FAS expression. GCN2 KO (−/−) mice were fed a leucine-deprived diets for seven days and were given C75 at a dose of 20 mg/Kg body weight in 200 μl RPMI or only RPMI every other day by IP injection during this period. A. Liver histology for GCN2 KO mice. Sections from animals were stained with oil red O, magnification 40×. Lipid deposits are detected as red-stained areas. B and C. Expression of FAS mRNA (B) and FAS protein (C, top: western blot; bottom: FAS protein relative to tubulin and normalized to control diet group within same strains of mice). *Effect of with C75 treatment fed on (−) leu diet versus without C75 treatment fed on (−) leu diet or control diet in GCN2 KO mice (two-tailed student t-test; p<0.0001.). [KO: control diet (n=6); (−) leu diet (n=5); (−) leu diet+C75 (n=3)]. D and E. Expression of PPARα and ACO mRNA. *Effect of with C75 treatment versus without C75 treatment on either (−) leu diet (*a: p<0.001) or control diet group (*b: p<0.001) in GCN2 KO mice (two-tailed student t-test; p<0.0001.). [KO: control diet (n=6); (−) leu diet (n=5); (−) leu diet+C75 (n=3)].
Wild-type C57BL/6J (GCN2^+/+) mice were obtained from Jackson Laboratories (Bar Harbor, Me.). […] Food intake and body weight were recorded daily. […] Body, liver and adipose tissue weight were recorded at the time of sacrifice. […]
Total RNA was prepared from frozen liver using an RNase mini kit (Qiagen). Quantitative RT-PCR was performed using co-amplification of GAPDH as an internal control. 1 μg of RNA was reverse transcribed with random primers (Promega) and then quantitative PCR was performed with the qPCR core kit for sybergreen I (Eurogentec) by 7000 sequence detection system (Applied Biosystems). […] At a specific threshold in the linear amplification stage, the cycle differences between amplified GAPDH and cDNA of interest were used to determine the relative quantity of genes of interest. […]

[2] = system: liver FAS expression; conditions: 24 hrs after a single IP injection (30 mg/kg body weight); cited from earlier work
[3] = system: GCN2−/− mice; assay: PPARα agonist WY compound in leucine-deprived GCN2−/− mice (fatty liver); type: in vivo

Structure (SMILES): C=C1C(=O)OC(CCCCCCCC)C1C(=O)O (centres unmarked) [C75]
- FAS mRNA and protein levels in liver [1]: repressed
- levels of PPARα and ACO mRNA in liver [1]: reduced
- liver steatosis [1]: prevented
- liver FAS expression [2]: inhibit FAS expression significantly; also recorded: significant reductions

Structure (SMILES): Cc1cccc(Nc2cc(Cl)nc(SCC(=O)O)n2)c1C [WY compound]
- development of fatty liver [3]: not able to prevent
